Several values for one entry are separate records, joined by “and”; a condition that tells them apart may be missing. Equal entries are not always repeated. Where two headings read alike, the source gives them in different places.
Legend:
HT-29 SF cells [1] = assay: Reversal of DHEA-mediated growth inhibition; assay type: cell-based, human; conditions: 25 μM DHEA, 48 hours of treatment
HT-29 SF cells [2] = assay: Reversal of DHEA effect on cell cycle; assay type: cell-based, human; conditions: 25 FM DHEA
[3] = COPD patients, background; cited from earlier work
[4] = Physicochemical testing of DHEA-S dihydrate before and after micronization; conditions: for Water: Karl Fischer
Experimental: Surface area is determined using five point BET analyses are performed with nitrogen as the adsorbing gas (P/Po=0.05 to 0.30) using a Micromeritics TriStar surface area analyzer. Particle size distributions are measured by laser diffraction using a Micromeritics Saturn Digisizer where the particles are suspended in mineral oil with sodium dioctyl sodium sulfosuccinate as a dispersing agent. Drug substance water content is measured by Karl Fischer titration (Schott Titroline KF). Pure water is used as the standard and all relative standard deviations for triplicates are less than 1%. Powder is added directly to the titration media.

Human ASM cells = assay: [3H]-thymidine incorporation (DNA synthesis) in human airway smooth muscle cells; assay type: cell-based; conditions: alone or in combinations
From the text: Human ASM cells were obtained from the distal trachea of transplant donors in compliance with the University of Pennsylvania's Institutional Review Board. Distal trachealis was dissected free of connective tissue and enzymatically digested to yield approximately 1×10^4 human ASM cells. […] The cells were scraped and placed on filters which were then counted using a beta counter. All experiments were repeated in a minimum of three human ASM cell lines. All conditions per experiment were run with six replicates.
There are three classes of commonly used anti-asthma medications that alter cAMP concentrations and/or adenosine concentrations. These classes of drugs are: methylxanthines, beta-agonists and phosphodiesterase inhibitors. For each of these drug classes, isobutylmethylxanthine (IBMX) was used as the tool compound to inhibit smooth muscle proliferation.

Solubility of DHEA-S = assay type: physicochemical
From the text: Inhalation of pure water can produce a cough stimulus. […] The temperature effect is weaker at high NaCl concentrations.

[5] = Short-term solution stability of DHEA-S nebulizer formulation; assay type: physicochemical; conditions: 10 mg/mL in 0.12% NaCl, RT (24-26° C.)
Experimental: Aliquots of this solution are filled into clear glass vials and stored at RT (24-26° C.) and at 40° C. The samples are checked daily for DHEA-S content, DHEA content, and appearance. For each time point, duplicate samples are withdrawn and diluted from each vial. […] The study is stopped on day three. […] The solution should easily be stable for the day of reconstitution in a clinical trial. The following section describes the aerosol properties of this formulation.

Intracellular adenosine = assay type: in vivo, rat
Experimental: Folinic acid (50 mg/kg) was administered intraperitoneally once daily for fourteen days. […] Hearts were removed from animals and flash frozen in liquid nitrogen with 10 s of death. Liver and lungs were removed en bloc and flash frozen with […]. Brain tissue was subsequently dissected.

HT-29 SF cells [6] = assay: DHEA effect on cell cycle (flow cytometry); assay type: cell-based, human; conditions: 25-200 μM, 24-72 hours
Experimental: Cells were plated at 10^5/60-mm dish in duplicate. […] Cultures were trypsinized following 0, 24, 48, or 74 hours and fixed and stained using a modification of a procedure of Bauer et al., Cancer Res. 46, 3173-3178 (1986). Briefly, cells were collected by centrifugation and resuspended in cold phosphate-buffered saline. Cells were fixed in 70% ethanol, washed, and resuspended in phosphate-buffered saline.
After 24, 48, and 72 hours, cells were harvested, fixed in ethanol, and stained with propidium iodide, and the DNA content/cell was determined by flow cytometric analysis. The percentage of cells in G1, S, and G2M phases was calculated using the Cellfit cell cycle analysis program. S phase is marked by a quadrangle for clarity. Representative histograms from duplicate determinations are shown. The experiment was repeated three times.

HT-29 SF cells [7] = assay: DHEA effect on cell growth; conditions: 12.5-200 μM, 24-72 hours
Experimental: Cell cultures, HT-29 SF cells, which represent a subline of HY-29 cells (ATCC, Rockville, Md.) and are adapted for growth in completely defined serum-free PC-1 medium (Ventrex, Portland, Me.), were obtained. Stock cultures were maintained in this medium at 37° C. (in a humidified atmosphere containing 5% CO2).

[8] = Particle size of jet-milled / spray-dried DHEA-S (Malvern Mastersizer X, light microscope); assay type: physicochemical; conditions: double pass through the jet mill
Experimental: Approximately 1 g sample was passed through the jet mill, once, and approximately 2 g sample were passed through the jet mill twice. […] The resulting solution was sonicated for 3 minutes and appeared fully dispersed. The dispersed solutions were tested on a Malvern Mastersizer X with a small volume sampler (SVS) attachment. One sample of dispersed material was tested 5 times. The median particle size or D (v, 0.5) of unmilled material was 52.56 μm and the % RSD (relative standard deviation) was 7.61 for the 5 values. The D (v, 0.5) for a single pass through the jet mill was 3.90 μm and the % RSD was 1.27, and the D (v, 0.5) from a double pass through the jet mill […] and the % RSD was 3.10.
The solution was spray-dried with a B-191 Mini Spray-Drier (Buchi, Flawil, Switzerland) with an inlet temperature of 55° C., outlet temperature of 40° C., at 100% aspirator, at 10% pump, nitrogen flow at 40 mbar and spray flow at 600 units. The spray-dried product was suspended in hexane and Span85 surfactant added to reduce agglomeration. The dispersions were sonicated with cooling for 3-5 minutes for complete dispersion and the dispersed solutions tested on a Malvern Mastersizer X with a Small Volume Sampler (SVS) attachment. […] Visual examination by light microscope of the dispersions of each batch confirmed that spray drying produced small respirable size particles. […]

SMILES: CC(C)=CCC/C(C)=C/CC/C(C)=C/CC/C=C(\C)CC/C=C(\C)CCC=C(C)C [SQ, squalene]
- Effect of supplement on DHEA-induced growth inhibition (HT-29 SF cells [1]): no such effect

SMILES: C[C@@](O)(CCO)CC(=O)O [MVA, mevalonic acid]
- Effect of supplement on DHEA-induced reduction of S phase cells (HT-29 SF cells [2]; 48 hours): partially prevented this effect
- Effect of supplement on DHEA-induced reduction of S phase cells (HT-29 SF cells [2]; 72 hours): not after 72 hours
- Effect of supplement on DHEA-induced growth inhibition (HT-29 SF cells [1]): partially overcome

SMILES: Cn1c(=O)c2[nH]cnc2n(C)c1=O [Theophylline, 3,7-dihydro-1,3-dimethyl-1H-purine-2,6-dione]
- Serum concentrations required for optimal effects [3]: 15 to 20 µg/mL

SMILES: C[C@]12CC[C@H](OS(=O)(=O)[O-])CC1=CC[C@@H]1[C@@H]2CC[C@]2(C)C(=O)CC[C@@H]12.[Na+] [DHEA-S dihydrate, sodium dehydroepiandrostenone sulfate]
- Impurities ([4]; Bulk): No significant peaks
- Water ([4]; Bulk): 8.5 % w/w
- Impurities ([4]; Micronized): No significant peaks
- Water ([4]; Micronized): 8.4 % w/w
- Surface area ([4]; Micronized, five point BET): 4.9 m^2/g

SMILES: CC(C)CCC[C@@H](C)[C@H]1CC[C@H]2[C@@H]3CC=C4C[C@@H](O)CC[C@]4(C)[C@H]3CC[C@]12C [CH, cholesterol]
- Effect of supplement on DHEA-induced reduction of S phase cells (HT-29 SF cells [2]; 48 hours): very little effect
- Effect of supplement on DHEA-induced reduction of S phase cells (HT-29 SF cells [2]; 72 hours): no effect
- Effect of supplement on DHEA-induced growth inhibition (HT-29 SF cells [1]): no such effect

SMILES: C[C@]12CC[C@H](OS(=O)(=O)[O-])CC1=CC[C@@H]1[C@@H]2CC[C@]2(C)C(=O)CC[C@@H]12.[Na+] [DHEA-S, sodium dehydroepiandrostenone sulfate]
- Effect on smooth muscle proliferation without EGF stimulation (FIG. 18) (Human ASM cells): neither IBMX nor DHEA-S alone or in combinations inhibits smooth muscle proliferation
- Estimated DHEA-S concentration in solution (Solubility of DHEA-S; 15° C., 20 mM Na+, Ksp 1316 mM^2): 27.5 mM and 10.7 mg/mL
- Ksp at 15° C. (Solubility of DHEA-S; interpolated versus reciprocal of absolute temperature): 1316 mM^2
- Appearance of solution on storage [5]: a slight precipitate is observed on the third day

SMILES: Nc1nc(=O)c2c([nH]1)NCC(CNc1ccc(C(=O)N[C@@H](CCC(=O)O)C(=O)O)cc1)N2C=O (mixture of isomers) [Folinic Acid, Folinic acid]
- Effect of folinic acid alone on adenosine levels (Intracellular adenosine; administered alone): increase in adenosine levels for all organs studied
- Effect of coadministered folinic acid on steroid-mediated adenosine depletion (Intracellular adenosine; coadministration with DHEA or methyltestosterone): completely abrogated steroid-mediated adenosine depletion

SMILES: C[C@]12CC[C@H](O)CC1=CC[C@@H]1[C@@H]2CC[C@]2(C)C(=O)CC[C@@H]12 [DHEA, 3β-hydroxyandrost-5-en-17-one]
- Cell cycle effect (in words) (HT-29 SF cells [6]): produced a G1 block in HT-29 SF cells in a time- and dose-dependent manner
- Inhibition of growth (in words) (HT-29 SF cells [7]): time- and dose-dependent inhibition of growth
- Solubility in water (in words) (Solubility of DHEA-S; water): insoluble in water
- Effect on tissue adenosine (in words) (Intracellular adenosine; rat, in vivo): multi-organ depletion of adenosine

SMILES: C[C@]12CCC(=O)C=C1CC[C@@H]1[C@@H]2CC[C@@]2(C)[C@H]1CC[C@]2(C)O [Methyltestosterone, methyltestosterone]
- Effect on tissue adenosine (in words) (Intracellular adenosine; daily for two weeks): multi-organ depletion of adenosine

SMILES: C[C@]12CC[C@H](OS(=O)(=O)[O-])CC1=CC[C@@H]1[C@@H]2CC[C@]2(C)C(=O)CC[C@@H]12.[Na+] [Anhydrous DHEA-S, sodium dehydroepiandrostenone sulfate]
- Median particle size D (v, 0.5) [8]: 3.25 ™

Reference: patent publication US20090285899A1, “COMBINATION OF DEHYDROEPIANDROSTERONE OR DEHYDROEPIANDROSTERONE-SULFATE WITH A METHYLXANTHINE DERIVATIVE FOR TREATMENT OF ASTHMA OR CHRONIC OBSTRUCTIVE PULMONARY DISEASE” (priority 2003, published 2009)
